Source: US20140249024A1, “Pesticidal Methods Using Substituted 3-pyridyl Thiazole Compounds and Derivatives for Combating Animal Pests II” (BASF SE, priority 2011, published 2014)

How the values were obtained:
Format in all cases: in vivo
[1] = test system: Cowpea Aphid (Aphis craccivora); test: Cowpea aphid test on sprayed potted cowpea plants; settings: spray on cowpea plants, population reduction assessed after 24, 72 and 120 hours, read-out: mortality in comparison with untreated controls
Procedure: The active compound was dissolved at the desired concentration in a mixture of 1:1 (vol:vol) distilled water:acetone. The test solution was prepared at the day of use.
Potted cowpea plants colonized with approximately 100-150 aphids of various stages were sprayed after the pest population had been recorded. Population reduction was assessed after 24, 72, and 120 hours.

[2] = test system: Green Peach Aphid (Myzus persicae); test: Green peach aphid mortality on sprayed bell pepper plants; settings: 120 h, spray on infested bell pepper plants, determined after 5 days, read-out: mortality in comparison with untreated controls
From the text: (§1) The active compounds were formulated in cyclohexanone as a 10,000 ppm solution supplied in tubes. The tubes were inserted into an automated electrostatic sprayer equipped with an atomizing nozzle and they served as stock solutions for which lower dilutions were made in 50% acetone:50% water (v/v). A nonionic surfactant (Kinetic®) was included in the solution at a volume of 0.01% (v/v).
Bell pepper plants at the first true-leaf stage were infested prior to treatment by placing heavily infested leaves from the main colony on top of the treatment plants. Aphids were allowed to transfer overnight to accomplish an infestation of 30-50 aphids per plant and the host leaves were removed. The infested plants were then sprayed by an automated electrostatic plant sprayer equipped with an atomizing spray nozzle. The plants were dried in the sprayer fume hood, removed, and then maintained in a growth room under fluorescent lighting in a 24-hr photoperiod at about 25° C. and about 20-40% relative humidity. Aphid mortality on the treated plants, relative to mortality on untreated control plants, was determined after 5 days.

[3] = test system: Cotton Aphid (Aphis gossypii); test: Cotton aphid mortality on dipped cotton cotyledons; settings: 120 h, mortality counts after 5 days, read-out: mortality in comparison with untreated controls
From the text: The active compounds were formulated in 50:50 (vol:vol) acetone: water and 100 ppm Kinetica™ surfactant.
Cotton plants at the cotyledon stage (one plant per pot) weare infested by placing a heavily infested leaf from the main colony on top of each cotyledon. The aphids were allowed to transfer to the host plant overnight, and the leaf used to transfer the aphids was removed. The cotyledons were dipped in the test solution and allowed to dry. After 5 days, mortality counts were made.

[4] = test system: Silverleaf Whitefly (bemisia argentifolii); test: Silverleaf whitefly adult mortality on sprayed cotton plants; settings: 72 h, spray on cotton plants, whitefly adults, assessed 3 days after treatment, read-out: mortality in comparison with untreated controls
From the text: as §1, with “they serve” for “they served”, “dilutions are” for “dilutions were”
Cotton plants at the cotyledon stage (one plant per pot) were sprayed by an automated electrostatic plant sprayer equipped with an atomizing spray nozzle. The plants were dried in the sprayer fume hood and then removed from the sprayer. Each pot was placed into a plastic cup and about 10 to 12 whitefly adults (approximately 3-5 days old) were introduced. The insects were collected using an aspirator and a nontoxic Tygon® tubing connected to a barrier pipette tip. The tip, containing the collected insects, were then gently inserted into the soil containing the treated plant, allowing insects to crawl out of the tip to reach the foliage for feeding. Cups were covered with a reusable screened lid. Test plants were maintained in a growth room at about 25° C. and about 20-40% relative humidity for 3 days, avoiding direct exposure to fluorescent light (24 hour photoperiod) to prevent trapping of heat inside the cup. Mortality was assessed 3 days after treatment, compared to untreated control plants.

Measured: mortality at 500 ppm

FC(F)(F)c1nc(-c2cccnc2)sc1-c1ccn(-c2ncccn2)n1 [C.2, 2-[3-(2-Pyridin-3-yl-4-trifluoromethyl-thiazol-5-yl)-pyrazol-1-yl]-pyrimidine]
≥ 75%: [1] | [2] | [3]

Clc1nc(-c2cccnc2)sc1-c1ccccn1 [C.4, 4-chloro-5-(2-pyridyl)-2-(3-pyridyl)thiazole]
≥ 75%: [1] | [2] | [4]
